From paper PMC6051542 (MedChemComm, 2017)
Converted amounts (≈) assume the structure as drawn. Like-named read-outs stand apart in the source and are kept apart here.

How the values were obtained:
[1] = tested on: E. coli JW5503 harboring pCA24N-gyrB; assay type: cell-based
[2] = tested on: E. coli, Edwardsiella tarda, S. enterica enterica Typhimurium, and S. flexneri; assay: MIC against susceptible gram-negative strains; assay type: cell-based; conditions: read-out: MICs against susceptible gram-negative strains
[3] = tested on: E. coli BW25113; conditions: wild-type E. coli BW25113; cited from earlier work
[4] = tested on: E. coli JW5503; conditions: cited from earlier work
[5] = biological target: DNA gyrase ATPase activity (Escherichia coli, UniProt P0AES4+P0AES6); assay: ATPase activity of DNA gyrase; assay type: biochemical, E. coli; conditions: up to a concentration of 100 μM
[6] = tested on: gram-positive strains; assay: MIC against all 9 gram-positive strains tested; assay type: cell-based; conditions: read-out: MIC values against all 9 gram-positive strains tested
[7] = tested on: E. coli cells, overexpression (gyrA/gyrB) (+/+); assay: microbe, parasite or virus in culture; assay type: cell-based; conditions: Escherichia coli, induction + (IPTG)
[8] = tested on: gyrR strains derived from E. coli JW5503; assay: MIC against the five gyrR strains derived from E. coli JW5503; assay type: cell-based; conditions: Escherichia coli, read-out: MIC against gyrR strains
[9] = tested on: E. coli cells; conditions: cited from earlier work

Sequence of DNA gyrase ATPase activity (P0AES4 whole entry, one chain of several): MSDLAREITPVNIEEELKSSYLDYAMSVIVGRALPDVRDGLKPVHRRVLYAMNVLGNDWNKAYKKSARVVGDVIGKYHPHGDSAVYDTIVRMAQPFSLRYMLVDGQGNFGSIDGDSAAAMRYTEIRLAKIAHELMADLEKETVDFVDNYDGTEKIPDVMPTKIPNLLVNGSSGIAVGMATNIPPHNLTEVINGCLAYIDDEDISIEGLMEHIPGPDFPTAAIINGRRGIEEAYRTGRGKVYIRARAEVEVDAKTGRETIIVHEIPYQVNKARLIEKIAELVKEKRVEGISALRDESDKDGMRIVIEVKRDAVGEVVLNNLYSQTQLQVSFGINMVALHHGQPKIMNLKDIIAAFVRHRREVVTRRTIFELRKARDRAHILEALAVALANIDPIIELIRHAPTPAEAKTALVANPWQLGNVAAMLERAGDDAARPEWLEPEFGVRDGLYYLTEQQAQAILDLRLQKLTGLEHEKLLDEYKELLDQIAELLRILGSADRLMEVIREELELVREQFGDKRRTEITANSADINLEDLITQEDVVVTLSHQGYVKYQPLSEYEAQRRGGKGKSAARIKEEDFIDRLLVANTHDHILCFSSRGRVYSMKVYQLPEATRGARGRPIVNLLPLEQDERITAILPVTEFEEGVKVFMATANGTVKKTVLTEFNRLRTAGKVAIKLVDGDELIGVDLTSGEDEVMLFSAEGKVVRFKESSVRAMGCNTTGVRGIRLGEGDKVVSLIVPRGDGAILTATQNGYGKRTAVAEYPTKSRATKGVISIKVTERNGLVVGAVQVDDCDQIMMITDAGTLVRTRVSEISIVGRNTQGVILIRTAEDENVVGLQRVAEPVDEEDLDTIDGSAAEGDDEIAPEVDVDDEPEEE

## CO[C@@H]1[C@@H](OC(N)=O)[C@@H](O)[C@H](Oc2ccc3c(O)c(NC(=O)c4ccc(O)c(CC=C(C)C)c4)c(=O)oc3c2C)OC1(C)C [Compound 2, Novobiocin]
[1]
  highest concentration at which cultures grew: 51 µg/mL

## Cc1ccc(C#N)cc1S(=O)(=O)N[C@@H]1CCN(Cc2ccc(-c3ccccc3)cc2)C1 [Compound 5, (R)-N-(1-([1,1′-biphenyl]-4-ylmethyl)pyrrolidin-3-yl)-5-cyano-2-methylbenzenesulfonamide]
[2]
  MIC: 2 to 16 µg/mL (≈ 4.63 to 37.1 µM)

## Cc1ccc(F)cc1S(=O)(=O)N[C@@H]1CCN(Cc2ccc(-c3ccccc3)cc2)C1 [Compound 8, gyramide C]
[3]
  MIC: > 160 µg/mL
[4]
  MIC: 0.1 µg/mL (≈ 0.236 µM)

## N#Cc1cccc(S(=O)(=O)N[C@@H]2CCN(Cc3ccc(-c4ccccc4)cc3)C2)c1 [Compound 3, (R)-N-(1-([1,1′-biphenyl]-4-ylmethyl)pyrrolidin-3-yl)-3-cyanobenzenesulfonamide]
[5]
  inhibition of ATPase activity: did not inhibit the ATPase activity
[2]
  MIC: 2 to 16 µg/mL (≈ 4.79 to 38.3 µM)

## Cc1ccc(C(F)(F)F)cc1S(=O)(=O)N[C@@H]1CCN(Cc2ccc(OC3CC3)cc2)C1 [Compound 4, (R)-N-(1-(4-cyclopropoxybenzyl)pyrrolidin-3-yl)-2-methyl-5-(trifluoromethyl)benzenesulfonamide]
[6]
  MIC: 4 to 16 µg/mL (≈ 8.8 to 35.2 µM)
[2]
  MIC: 2 to 16 µg/mL (≈ 4.4 to 35.2 µM)

## O=C(O)c1cn(C2CC2)c2cc(N3CCNCC3)c(F)cc2c1=O [Compound 1, Ciprofloxacin]
[5]
  inhibition of ATPase activity: did not observe a decrease in ATPase activity
[7]
  MIC: 0.002 µg/mL
[8]
  MIC: 1.6 to 3.2 µg/mL (≈ 4.83 to 9.66 µM)
[9]; E. coli cells before overexpression of DNA gyrase
  MIC: 0.009 µg/mL (≈ 0.0272 µM)
[9]; E. coli cells with overexpression of DNA gyrase
  MIC: 0.002 µg/mL (≈ 0.00604 µM)
